Results published in patent publication US9187472B2 (AbbVie Inc., priority 2012, dated 2015).

Tests used:
PC3 cells = experiment: NAMPT Cell Proliferation Assay; type: cell-based; conditions: Homo sapiens, PC-3, 120 h, 5 days incubation, cell viability by Cell Titer Glo
Procedure, shortened: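 Cell Titer Glo viability after 5-day exposure (37° C, 5% CO2); PC3, 500 cells/well, RPMI + 10% heat-inactivated FBS, overnight attachment before dosing. Dose range 10 μM to 1×10^−5 μM, 10-fold steps. IC50 = sigmoidal fit of % inhibition.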

NAMPT = NAMPT (Homo sapiens, UniProt P43490); experiment: TR-FRET Binding Assay of NAMPT with PRPP; conditions: with 200 μM PRPP and 2.5 mM ATP; 2 nM NAMPT, 2 nM probe, 16 hours equilibration
NAMPT, sequence (P43490 whole entry): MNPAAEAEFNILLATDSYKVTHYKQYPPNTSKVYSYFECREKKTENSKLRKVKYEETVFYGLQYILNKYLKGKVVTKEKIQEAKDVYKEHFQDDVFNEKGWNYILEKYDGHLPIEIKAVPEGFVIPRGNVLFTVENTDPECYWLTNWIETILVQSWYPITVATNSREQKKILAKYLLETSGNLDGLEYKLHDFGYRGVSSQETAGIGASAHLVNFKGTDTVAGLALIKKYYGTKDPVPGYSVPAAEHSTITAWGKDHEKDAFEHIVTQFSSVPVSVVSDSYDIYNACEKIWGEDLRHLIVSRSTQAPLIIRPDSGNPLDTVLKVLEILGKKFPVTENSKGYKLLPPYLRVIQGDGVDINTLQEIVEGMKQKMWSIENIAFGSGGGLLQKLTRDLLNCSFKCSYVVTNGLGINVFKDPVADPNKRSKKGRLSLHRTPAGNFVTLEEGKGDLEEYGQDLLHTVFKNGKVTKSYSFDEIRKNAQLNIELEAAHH
Procedure, shortened: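 Run in the presence of substrates (200 μM PRPP, 2.5 mM ATP) with final 2 nM NAMPT, 2 nM probe, 1 nM Tb-anti-His antibody and 2% DMSO. Mixtures equilibrated 16 h before TR-FRET measurement so test compounds could be enzymatically modified.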

[1] = target: NAMPT (human, recombinant, C-terminally His-tagged) (Homo sapiens, UniProt P43490); experiment: Time-Resolved Fluorescence Resonance Energy Transfer (TR-FRET) Binding Assay of NAMPT; conditions: without substrates; 6.8 nM NAMPT, 200 nM probe, 3 hours equilibration
NAMPT (human, recombinant, C-terminally His-tagged), sequence (P43490 whole entry): as above
Procedure, shortened: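 Probe displacement by compound was measured with 6.8 nM NAMPT, 200 nM Oregon Green 488-conjugated nicotinamide-competitive inhibitor probe and 1 nM Tb-anti-His antibody in 50 mM HEPES pH 7.5, 100 mM NaCl, 10 mM MgCl2, 1 mM DTT, 1% glycerol, 2% DMSO (final). After 3 h at room temperature, TR-FRET was read; IC50 from four-parameter logistic fit.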

`O=C(NCc1ccn2ccnc2c1)c1cnc(C2CCN(C(=O)c3ccccc3)CC2)s1` [Example 545, 2-(1-benzoylpiperidin-4-yl)-N-(imidazo[1,2-a]pyridin-7-ylmethyl)-1,3-thiazole-5-carboxamide] gave an IC50 (PC3 cells) of 28.7 nM, an IC50 (NAMPT) of 0.403 nM and an IC50 [1] of 109 nM.

`O=C(CC1CCCC1)Nc1ccc(C(=O)NCc2ccn3ncnc3c2)cc1` [Example 546, 4-[(cyclopentylacetyl)amino]-N-([1,2,4]triazolo[1,5-a]pyridin-7-ylmethyl)benzamide] gave an IC50 (PC3 cells) of 2450 nM, an IC50 (NAMPT) of 23.2 nM and an IC50 [1] of 237 nM.

In the case of `CC[C@H](C)C(=O)N1CC(c2ccc(C(=O)NCc3ccn4ccnc4c3)cc2)C1` [Example 547, N-(imidazo[1,2-a]pyridin-7-ylmethyl)-4-{1-[(2S)-2-methylbutanoyl]azetidin-3-yl}benzamide], the IC50 (PC3 cells) is reported as 25.6 nM, the IC50 (NAMPT) is reported as 0.423 nM and the IC50 [1] is reported as 498 nM.

`O=C(NCc1ccn2ccnc2c1)c1ccc(C2CN(C(=O)CC3CC3)C2)cc1` [Example 548, 4-[1-(cyclopropylacetyl)azetidin-3-yl]-N-(imidazo[1,2-a]pyridin-7-ylmethyl)benzamide] showed an IC50 (PC3 cells) of 74.5 nM, an IC50 (NAMPT) of 0.471 nM and an IC50 [1] of 397 nM.

`O=C(NCc1ccn2ccnc2c1)c1ccc(C2CN(C(=O)c3ccccc3)C2)cc1` [Example 549, 4-(1-benzoylazetidin-3-yl)-N-(imidazo[1,2-a]pyridin-7-ylmethyl)benzamide] gave an IC50 (PC3 cells) of 9.42 nM, an IC50 (NAMPT) of 0.224 nM and an IC50 [1] of 81.2 nM.

`CC(C)(O)C(=O)N1CC(c2ccc(C(=O)NCc3ccn4ccnc4c3)cc2)C1` [Example 550, 4-[1-(2-hydroxy-2-methylpropanoyl)azetidin-3-yl]-N-(imidazo[1,2-a]pyridin-7-ylmethyl)benzamide] was tested, and the IC50 (PC3 cells) was 174 nM, the IC50 (NAMPT) was 0.427 nM and the IC50 [1] was 762 nM.

`O=C(NCc1ccn2ccnc2c1)c1ccc(C2CN(C(=O)CC3CCOCC3)C2)cc1` [Example 551, N-(imidazo[1,2-a]pyridin-7-ylmethyl)-4-[1-(tetrahydro-2H-pyran-4-ylacetyl)azetidin-3-yl]benzamide] gave an IC50 (PC3 cells) of 55.1 nM, an IC50 (NAMPT) of 0.392 nM and an IC50 [1] of 713 nM.

With `O=C(NCc1ccn2ccnc2c1)c1ccc(C2CN(C(=O)c3cccs3)C2)cc1` [Example 552, N-(imidazo[1,2-a]pyridin-7-ylmethyl)-4-[1-(thiophen-2-ylcarbonyl)azetidin-3-yl]benzamide] the IC50 (PC3 cells) was 42.6 nM, the IC50 (NAMPT) was 0.543 nM and the IC50 [1] was 184 nM.

`CC(C)CC(=O)N1CCC(O)(c2ccc(C(=O)NCc3ccn4ccnc4c3)s2)CC1` [Example 553, 5-[4-hydroxy-1-(3-methylbutanoyl)piperidin-4-yl]-N-(imidazo[1,2-a]pyridin-7-ylmethyl)thiophene-2-carboxamide] showed an IC50 (PC3 cells) of 103 nM, an IC50 (NAMPT) of 0.592 nM and an IC50 [1] of 478 nM.

In the case of `CC(C)C(=O)N1CCC(O)(c2ccc(C(=O)NCc3ccn4ccnc4c3)s2)CC1` [Example 554, 5-[4-hydroxy-1-(2-methylpropanoyl)piperidin-4-yl]-N-(imidazo[1,2-a]pyridin-7-ylmethyl)thiophene-2-carboxamide], the IC50 (PC3 cells) is reported as 177 nM, the IC50 (NAMPT) is reported as 0.837 nM and the IC50 [1] is reported as 451 nM.

With `CC(C)(C)CC(=O)N1CCC(O)(c2ccc(C(=O)NCc3ccn4ccnc4c3)s2)CC1` [Example 555, 5-[1-(3,3-dimethylbutanoyl)-4-hydroxypiperidin-4-yl]-N-(imidazo[1,2-a]pyridin-7-ylmethyl)thiophene-2-carboxamide] the IC50 (PC3 cells) was 33.2 nM, the IC50 (NAMPT) was 0.749 nM and the IC50 [1] was 427 nM.

With `O=C(NCc1ccn2ccnc2c1)c1ccc(C2(O)CCN(C(=O)c3ccccc3)CC2)s1` [Example 556, 5-(1-benzoyl-4-hydroxypiperidin-4-yl)-N-(imidazo[1,2-a]pyridin-7-ylmethyl)thiophene-2-carboxamide] the IC50 (PC3 cells) was 6.55 nM, the IC50 (NAMPT) was 0.407 nM and the IC50 [1] was 5.43 nM.

With `CC(C)S(=O)(=O)N1CC(c2ccc(C(=O)NCc3ccn4ccnc4c3)cc2)C1` [Example 557, N-(imidazo[1,2-a]pyridin-7-ylmethyl)-4-[1-(propan-2-ylsulfonyl)azetidin-3-yl]benzamide] the IC50 (PC3 cells) was 37.4 nM, the IC50 (NAMPT) was 0.359 nM and the IC50 [1] was 167 nM.

For `CC(C)C(=O)N1CC(Oc2ccc(C(=O)NCc3ccn4ccnc4c3)cc2)C1` [Example 558, N-(imidazo[1,2-a]pyridin-7-ylmethyl)-4-{[1-(2-methylpropanoyl)azetidin-3-yl]oxy}benzamide], the IC50 (PC3 cells) was 1170 nM, the IC50 (NAMPT) was 0.352 nM and the IC50 [1] was 1410 nM.

`CC[C@H](C)C(=O)N1CC(Oc2ccc(C(=O)NCc3ccn4ccnc4c3)cc2)C1` [Example 559, N-(imidazo[1,2-a]pyridin-7-ylmethyl)-4-({1-[(2S)-2-methylbutanoyl]azetidin-3-yl}oxy)benzamide] showed an IC50 (PC3 cells) of 94.3 nM, an IC50 (NAMPT) of 0.223 nM and an IC50 [1] of 681 nM.

`O=C(NCc1ccn2ccnc2c1)c1ccc(OC2CN(C(=O)CC3CC3)C2)cc1` [Example 560, 4-{[1-(cyclopropylacetyl)azetidin-3-yl]oxy}-N-(imidazo[1,2-a]pyridin-7-ylmethyl)benzamide] showed an IC50 (PC3 cells) of 844 nM, an IC50 (NAMPT) of 0.312 nM and an IC50 [1] of 969 nM.

Compound `O=C(NCc1ccn2ccnc2c1)c1ccc(OC2CN(C(=O)c3ccccc3)C2)cc1` [Example 561, 4-[(1-benzoylazetidin-3-yl)oxy]-N-(imidazo[1,2-a]pyridin-7-ylmethyl)benzamide] has an IC50 (PC3 cells) of 240 nM, an IC50 (NAMPT) of 0.335 nM and an IC50 [1] of 869 nM.

`O=C(NCc1ccn2ccnc2c1)c1ccc(C2CCN(C(=O)c3ccc(F)cc3)C2)cc1` (stereo not drawn) [Example 562, 4-[1-(4-fluorobenzoyl)pyrrolidin-3-yl]-N-(imidazo[1,2-a]pyridin-7-ylmethyl)benzamide] was tested, and the IC50 (PC3 cells) was 70.9 nM, the IC50 (NAMPT) was 0.607 nM and the IC50 [1] was 218 nM.

`CC(C)(C)OC(=O)N1CCC(c2ccc(C(=O)NCc3ccn4ncnc4c3)cc2)CC1` [Example 563, tert-butyl 4-{4-[([1,2,4]triazolo[1,5-a]pyridin-7-ylmethyl)carbamoyl]phenyl}piperidine-1-carboxylate] was tested, and the IC50 (PC3 cells) was 5140 nM, the IC50 (NAMPT) was 4.19 nM and the IC50 [1] was 322 nM.

`O=C(CC1CCCC1)Nc1ccc(NC(=O)NCc2ccn3ncnc3c2)cc1` [Example 564, 2-cyclopentyl-N-(4-{[([1,2,4]triazolo[1,5-a]pyridin-7-ylmethyl)carbamoyl]amino}phenyl)acetamide] gave an IC50 (PC3 cells) of 211 nM, an IC50 (NAMPT) of 3.43 nM and an IC50 [1] of 23.8 nM.

`CC(C)(C)OC(=O)N1CCC(c2ccc(NC(=O)NCc3ccn4ncnc4c3)cc2)CC1` [Example 565, tert-butyl 4-(4-{[([1,2,4]triazolo[1,5-a]pyridin-7-ylmethyl)carbamoyl]amino}phenyl)piperidine-1-carboxylate] gave an IC50 (PC3 cells) of 891 nM, an IC50 (NAMPT) of 5.38 nM and an IC50 [1] of 215 nM.

`O=C(NCc1ccn2ccnc2c1)c1ccc(C(=O)N2CCCCC2)cc1` [Example 566, N-(imidazo[1,2-a]pyridin-7-ylmethyl)-4-(piperidin-1-ylcarbonyl)benzamide] gave an IC50 (PC3 cells) of over 10000 nM, an IC50 (NAMPT) of 216 nM and an IC50 [1] of over 10000 nM.

For `CCS(=O)(=O)N1CC(c2ccc(C(=O)NCc3ccn4ccnc4c3)cc2)C1` [Example 567, 4-[1-(ethylsulfonyl)azetidin-3-yl]-N-(imidazo[1,2-a]pyridin-7-ylmethyl)benzamide], the IC50 (PC3 cells) was 237 nM, the IC50 (NAMPT) was 1.11 nM and the IC50 [1] was 403 nM.

`O=C(NCc1ccn2ccnc2c1)c1ccc(C2CN(S(=O)(=O)C3CC3)C2)cc1` [Example 568, 4-[1-(cyclopropylsulfonyl)azetidin-3-yl]-N-(imidazo[1,2-a]pyridin-7-ylmethyl)benzamide] was tested, and the IC50 (PC3 cells) was 180 nM, the IC50 (NAMPT) was 0.723 nM and the IC50 [1] was 375 nM.

In the case of `O=C(NCc1ccn2ccnc2c1)c1ccc(C2CN(S(=O)(=O)c3ccccc3)C2)cc1` [Example 569, N-(imidazo[1,2-a]pyridin-7-ylmethyl)-4-[1-(phenylsulfonyl)azetidin-3-yl]benzamide], the IC50 (PC3 cells) is reported as 226 nM, the IC50 (NAMPT) is reported as 0.669 nM and the IC50 [1] is reported as 217 nM.

For `CC(C)OC(=O)N1CCC(c2ccc(C(=O)NCc3ccn4ccnc4c3)s2)CC1` [Example 570, propan-2-yl-4-{5-[(imidazo[1,2-a]pyridin-7-ylmethyl)carbamoyl]thiophen-2-yl}piperidine-1-carboxylate], the IC50 (PC3 cells) was 7.35 nM, the IC50 (NAMPT) was 0.751 nM and the IC50 [1] was 70.4 nM.

In the case of `CC(C)COC(=O)N1CCC(c2ccc(C(=O)NCc3ccn4ccnc4c3)s2)CC1` [Example 571, 2-methylpropyl 4-{5-[(imidazo[1,2-a]pyridin-7-ylmethyl)carbamoyl]thiophen-2-yl}piperidine-1-carboxylate], the IC50 (PC3 cells) is reported as 22.9 nM, the IC50 (NAMPT) is reported as 0.494 nM and the IC50 [1] is reported as 41.7 nM.

`O=C(NCc1ccn2ccnc2c1)c1ccc(C2CCN(C(=O)CC(F)(F)F)CC2)s1` [Example 572, N-(imidazo[1,2-a]pyridin-7-ylmethyl)-5-[1-(3,3,3-trifluoropropanoyl)piperidin-4-yl]thiophene-2-carboxamide] showed an IC50 (PC3 cells) of 6.66 nM, an IC50 (NAMPT) of 0.403 nM and an IC50 [1] of 51.6 nM.

In the case of `CC(C)CS(=O)(=O)N1CCC(c2ccc(C(=O)NCc3ccn4ccnc4c3)s2)CC1` [Example 573, N-(imidazo[1,2-a]pyridin-7-ylmethyl)-5-{1-[(2-methylpropyl)sulfonyl]piperidin-4-yl}thiophene-2-carboxamide], the IC50 (PC3 cells) is reported as 3.72 nM, the IC50 (NAMPT) is reported as 0.403 nM and the IC50 [1] is reported as 24.2 nM.
